# Patent US6387411B2, “Method for producing dispersible sterol and stanol compounds” (McNeil-PPC, Inc., priority 1998, dated 2002)
# Legend:
# [1] = Turbidity of ground sterol/docusate sodium matrix shaken in water; assay type: physicochemical; settings: shaken 30 seconds in 25 milliliter deionized water; for Turbidity, Series 2: measured after standing 20 minutes; for Turbidity, Series 1: measured after standing one minute
# Method: Yet another method to determine whether the desired level of hydrocarbon has been added to the sterol/stanol, is to measure the turbidity of the solution after 100 milligrams of the ground sterol/stanol/hydrocarbon are added to water. The greater turbidity value, the more effectively the solid solution is able to be dispersed in water. […] Preferred turbidity levels are greater than about 1500, preferably greater than 2000 and most preferably greater than 3000 Nephelometric Turbidity Units (NTU). As used herein turbidity is understood to be the same as defined by the United States Pharmacopeia, 15th Edition, the light scattering effect of suspended particles and turbidity as the measure of the decrease in the incident beam intensity per unit length of a given suspension. The range of turbidty values is from 0 to 20,000 NTU. As a point of reference the turbidity of water is zero. The turbidity of the samples is measured at room temperature.
# A docusate sodium/β-sitosterol matrix was prepared. The sample was shaken for 30 seconds in a vial containing 25 milliliter deionized water. In Series 1, turbidity measurements were taken after allowing the shaken sample to stand one minute. In Series 2, measurements were made after standing for 20 minutes.
# [2] = Wetting and time to disperse of powdered matrix in unstirred water; assay type: physicochemical; settings: similar conditions to Example 5 (200 mg in 250 ml water); up to three days vigorous stirring
# Source text: Another technique for measuring the crystallinity of the solid matrix is to measure the time in which a ground powdered sample of the solid takes to disperse in unstirred water. When an appropriate amount of the appropriate hydrocarbon material has been added, […], preferably in less than about 45 seconds and most preferably less than about 30 seconds. Agitation, including mild agitation such as a stirring bar, can be employed to enhance the dissolution of the solid solution in water.
# Additional sitosterol/docusate sodium matrices were prepared and added to water.
SMILES,"Turbidity, Series 2 [1] [NTU]","Turbidity, Series 1 [1] [NTU]",Wetting in water [2]
"CC[C@H](CC[C@@H](C)[C@H]1CC[C@H]2[C@@H]3CC=C4C[C@@H](O)CC[C@]4(C)[C@H]3CC[C@]12C)C(C)C [100% sterol, β-sitosterol]",523,1301,does not wet at all
"CCCCC(CC)COC(=O)CC(C(=O)OCC(CC)CCCC)S(=O)(=O)[O-].[Na+] (centres unmarked) [100% docusate sodium, docusate sodium]",0.441,1.22,–
